# Assay results as given in publication PMC2279149, “Mouse N-acetyltransferase type 2, the homologue of human N-acetyltransferase type 1” (Biochemical Pharmacology, 2008).
# Where two headings read alike, the source gives them in different places.
# Columns and labels:
# mouse Nat2 [1] = biological target: T1, mouse Nat2 (Mus musculus, UniProt P50295); test: Substrate specific activity of mouse Nat2 (rate of CoA production, DTNB); type: biochemical; details: substrate 500 μM, AcCoA 400 μM, 25 °C, pH 8.0
# T1 construct: The mouse Nat2 open-reading frame [22] was sub-cloned into pET28b(+); hexa-histidine tag (His-tag, from pET28b(+)) (N, cleaved yes); made in house; host or cells: Escherichia coli Rosetta(DE3)pLysS
# T1 sequence (P50295 1-290): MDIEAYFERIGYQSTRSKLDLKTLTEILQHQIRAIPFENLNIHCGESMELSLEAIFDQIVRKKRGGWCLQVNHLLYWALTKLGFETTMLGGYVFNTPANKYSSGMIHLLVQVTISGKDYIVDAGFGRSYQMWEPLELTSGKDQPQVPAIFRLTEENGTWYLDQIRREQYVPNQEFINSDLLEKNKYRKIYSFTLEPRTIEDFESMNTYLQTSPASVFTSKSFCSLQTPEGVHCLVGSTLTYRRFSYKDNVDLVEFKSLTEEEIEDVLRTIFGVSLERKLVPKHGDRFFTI
# Experimental: The rate of production of the free thiol Coenzyme A by NAT, in the presence of a range of known NAT acetyl-acceptor substrates, was determined by using Ellman's reagent, 5,5′-dithio-bis(2-nitrobenzoic acid) (DTNB) as previously described [[2,26]]. The substrate (500 μM) and purified recombinant NAT were pre-incubated (25 °C, 5 min) in 96-well flat-bottomed polystyrene plates (Costar®, Corning Inc.) in 20 mM Tris–HCl (pH 8.0). AcCoA (400 μM) was added to start the reaction in a final volume of 100 μL. The reaction was quenched with the addition of 25 μL of guanidine–HCl solution (6.4 M guanidine–HCl, 0.1 M Tris–HCl (pH 7.3)) containing 5 mM DTNB. The absorbance at 405 nm was measured on a plate-reader (Sunrise, Tecan). Assay buffer was used to replace substrate, AcCoA or NAT for control reactions. The amount of CoA produced in the assay was determined in comparison with a CoA standard curve.
# Substrate abbreviations used for the substrate selectivity assays are as follows: aniline (ANL), 4-aminobenzoic acid (PABA), 4-aminosalicylic acid (4AS), 5-aminosalicylic acid (5AS), 4-chloroaniline (CLA), 4-bromoaniline (BRA), 4-iodoaniline (IOA), 4-methoxyanline (ANS), 4-ethoxyaniline (EOA), 4-butoxyanline (BOA), 4-hexyloxyaniline (HOA), 4-phenoxyaniline (POA), 4-aminoveratrole (4AV), 2-aminofluorene (2AF), 4-aminobenzoyl-L-glutamate (pABGlu), sulfamethazine (SMZ), procainamide (PRO), 4-aminopyridine (APY), isoniazid (INH), hydralazine (HDZ) and phenylhydrazine (PHZ). The stock concentration of substrate was 100 mM dissolved in DMSO, such that the final concentration of DMSO was less than 5% in the assays. DMSO only controls were carried out.
# Fig. 2 Comparison of the substrate specific activity profiles of mouse Nat2, human NAT1 and human NAT2. The substrate specific activity profiles for mouse Nat2 (grey bars), human NAT1 (cross-hatched bars) and human NAT2 (black bars) are shown. The activity of mouse Nat2 was determined by measuring the rate of CoA production, as described in Section 2. Purified mouse Nat2 (0.125 μg) was incubated with arylamine substrate (each at 500 μM) and AcCoA (400 μM) in assay buffer (20 mM Tris–HCl (pH 8.0)) containing 0.5% (v/v) DMSO at 25 °C. The specific activities were determined from the linear initial rates of reaction. All measurements were performed in triplicate and are expressed as mean ± standard deviation relative to the most rapidly acetylated substrate. The human NAT1 and NAT2 data are taken from. The abbreviations are defined in Section 2.
# The rate of hydrolysis of AcCoA was measured in the presence of a wide range of acetyl-acceptors (known NAT substrates, at 500 μM) and mouse Nat2 as described in the Methods section and Supplementary Fig. 1. The assays were performed in the presence of 5% (v/v) DMSO.
# mouse Nat2 [2] = biological target: T1, mouse Nat2; test: Inhibition of mouse Nat2 acetylation of PABA (colorimetric DMAB assay); type: biochemical
# Experimental: The rates of arylamine acetylation by NATs were determined colorimetrically as previously described, but with minor modifications. Each assay contained the enzyme, arylamine substrate (see each figure legends for concentrations) and AcCoA (400 μM) in a total volume of 100 μL in assay buffer (20 mM Tris–HCl (pH 8.0), 1 mM DTT). Initially, the enzyme and substrate mixtures were pre-incubated at 25 °C for 5 min and AcCoA was added to start the reaction. The reaction was quenched using 20% (w/v) trichloroacetic acid (TCA) at different time intervals. The stopped reaction was centrifuged (16,000 × […], 10 min) to pellet the precipitated proteins. The stopped reaction mixture (200 μL) was added to 800 μL of 5% (w/v) 4-(N,N-dimethylamino)benzaldehyde (DMAB) in 9:1 acetonitrile:water to develop the colour. The absorption at 450 nm was measured with a Hitachi U-2001 UV–vis spectrophotometer, with the amount of residual substrate in the reaction was determined by comparison with a standard curve.
# The inhibitory effect of steroids on the rate of acetylation of arylamines by mouse Nat2 was measured by using the colorimetric DMAB assay as described in Section 2. Test compounds (50 μM, 2% DMSO unless specified) were pre-incubated with recombinant mouse Nat2 (3 ng) and PABA (75 μM) for 10 min at room temperature. AcCoA (400 μM) was added to start the reaction and the reaction mixture was incubated at 37 °C. The total reaction volume was 100 μL. Reactions were stopped at various time intervals by the addition of 100 μL of 20% (w/v) TCA. The colour was developed and measured as described in Section 2. The linear initial rate of reaction was determined and the percentage inhibition was calculated relative to the control activity measured without the inhibitor. All measurements were performed in triplicate and are expressed as mean ± standard deviation. *2% (v/v) ethanol **5% (v/v) DMSO used to dissolve the compounds in the assay.
# [3] = cited from earlier work
# mouse Nat2 [4] = biological target: T1, mouse Nat2; test: 1D 1H NMR titration of mouse Nat2 with ligand; type: binding; details: 8 equivalents of bisphenol A; 20 °C, pH 7.0
# Experimental: 1D ^1H NMR spectra for hamster and mouse Nat2 were collected at 20 °C using a jump-return sequence. This sequence enabled the observation of H^N peaks which exchange to a significant extent with H2O. Spectra were collected using a 600 MHz spectrometer using a sweep width of 12,500 Hz. Unlabelled hamster and mouse Nat2 were used at a concentration of 10 mg/mL in the buffer described above. The titration of mouse Nat2 with bisphenol A was carried out by stepwise addition of small volumes (5–20 μL) of a concentrated solution of bisphenol A (100 mM in deuterated DMSO) to the mouse Nat2 solution in the NMR tube. The highest concentration of DMSO in the sample used was 2.8%. DMSO alone had no effect on the NMR spectrum of mouse Nat2 using concentrations up to 5%.
# [5] = design: method as in PMID 11502892; details: after a soy-based meal; cited from earlier work
# [6] = steroidogenic compounds, inhibitor 1–500 μM, recombinant mouse Nat2 3 ng, PABA 75 μM, AcCoA 400 μM, 37 °C, read-out: IC50
# [7] = xenobiotic oestrogens, recombinant mouse Nat2 3 ng, PABA 75 μM, AcCoA 400 μM, 37 °C, read-out: IC50 mNAT2
structure (smiles),measurement,setting,value
"NNc1ccccc1 [PHZ, phenylhydrazine]",Specific activity of mouse Nat2 with substrate,mouse Nat2 [1],low specific activities
CC(=O)[C@@]1(O)CC[C@H]2[C@@H]3CCC4=CC(=O)CC[C@]4(C)[C@H]3CC[C@@]21C [17-Hydroxy-progesterone],IC50,mouse Nat2 [2]; [6],> 500 µM
"Nc1ccc2c(c1)Cc1ccccc1-2 [2AF, 2-aminofluorene]",Specific activity of mouse Nat2 with substrate,mouse Nat2 [1],high specific activities
same,Specific activity of mouse Nat2 with substrate,mouse Nat2 [1]; listed as 2-aminofluorene,readily acetylates
"NNC(=O)c1ccncc1 [INH, isoniazid]",Specific activity of mouse Nat2 with substrate,mouse Nat2 [1],low specific activities
CC/C(=C(\c1ccccc1)c1ccc(OCCN(C)C)cc1)c1ccccc1 [Tamoxifen],Intratumoral level,[3],micromolar concentrations
"Nc1ccc(C(=O)O)c(O)c1 [4AS, 4-aminosalicylic acid]",Specific activity of mouse Nat2 with substrate,mouse Nat2 [1],high specific activities
C[C@]12CC[C@@H]3c4ccc(O)cc4CC[C@H]3[C@@H]1CCC2=O [Estrone],IC50,mouse Nat2 [2]; [6],370 ± 10 µM
CC(C)(c1ccc(O)cc1)c1ccc(O)cc1 [Bisphenol A],IC50,mouse Nat2 [2]; [7],290 ± 10 µM
same,Change in chemical shift of histidine peak 1 (downfield),mouse Nat2 [4],~0.12 ppm
same,Change in chemical shift of histidine peak 4 (upfield),mouse Nat2 [4],~0.08 ppm
"NNc1nncc2ccccc12 [HDZ, hydralazine]",Specific activity of mouse Nat2 with substrate,mouse Nat2 [1],low specific activities
C[C@]12CCC(=O)C=C1CC[C@@H]1[C@@H]2CC[C@]2(C)C(=O)CC[C@@H]12 [Androsteinedione],IC50,mouse Nat2 [2]; [6],> 500 µM
C[C@]12CC[C@H]3[C@@H](CCC4=CC(=O)CC[C@@]43C)[C@@H]1CC[C@@H]2O [Testosterone],IC50,mouse Nat2 [2]; [6],> 500 µM
"Nc1ccc(O)c(C(=O)O)c1 [5AS, 5-aminosalicylic acid]",Specific activity of mouse Nat2 with substrate,mouse Nat2 [1],high specific activities
CC(=O)[C@H]1CC[C@H]2[C@@H]3CC=C4C[C@@H](O)CC[C@]4(C)[C@H]3CC[C@]12C [Pregnelone],IC50,mouse Nat2 [2]; [6],> 100 µM
"O=c1c(-c2ccc(O)cc2)coc2cc(O)cc(O)c12 [Geni stein, genistein]",Circulating plasma concentration,[5],≤ 18 µM
same,IC50,mouse Nat2 [2],45 ± 5 µM
C[C@H]1CCC[C@@H](O)CCC/C=C/c2cc(O)cc(O)c2C(=O)O1 [Beta-Zearalenol],IC50,mouse Nat2 [2]; [7],450 ± 10 µM
C[C@H]1CCC[C@H](O)CCC/C=C/c2cc(O)cc(O)c2C(=O)O1 [Alpha-Zearalenol],IC50,mouse Nat2 [2]; [7],70 ± 10 µM
CCN(CC)CCNC(=O)c1ccc(N)cc1 [procainamide],Specific activity of mouse Nat2 with substrate,mouse Nat2 [1],low specific activities
C[C@]12CC[C@@H]3c4ccc(O)cc4CC[C@H]3[C@@H]1CC[C@@H]2O [17-Hydroxy-β-estradiol],IC50,mouse Nat2 [2]; [6],55 ± 5 µM
C[C@H]1CCCC(=O)CCC/C=C/c2cc(O)cc(O)c2C(=O)O1 [Zearalenone],IC50,mouse Nat2 [2],220 ± 10 µM
Cc1cc(C)nc(NS(=O)(=O)c2ccc(N)cc2)n1 [sulfamethazine],Specific activity of mouse Nat2 with substrate,mouse Nat2 [1],low specific activities
"Nc1ccc(C(=O)O)cc1 [PABA, 4-aminobenzoic acid]",Specific activity of mouse Nat2 with substrate,mouse Nat2 [1],high specific activities
